Reference: patent US11787819B2, “Crystalline salt of a multi-tyrosine kinase inhibitor, method of preparation, and use thereof” (Mirati Therapeutics, Inc., priority 2021, dated 2023)

Assays:
[1] = Storage of Tartrate Form A-1 at 2-8° C. (XRPD); type: physicochemical; conditions: stored at 2-8° C. for 4 weeks
[2] = Phase 1 single-dose crossover relative bioavailability study of capsule formulations in Healthy Subjects; type: in vivo, humans; conditions: 100 mg capsule, oral administration
Experimental: A Phase 1, 2-part, open-label, single-dose, crossover study was conducted to evaluate the relative bioavailability of Compound 1 Malate vs Compound 1 Free base capsule formulations in Healthy Subjects following oral administration.

[3] = Critical relative humidity stress (XRPD of post-stress solids); type: physicochemical; conditions: RT
Experimental: Critical relative humidity (RH) experiments were designed to confirm the physical stability RH range for Malate Form A in the solid-state. […] The water content of Malate Form A and Material D were characterized by Karl Fischer analysis. (See Table 3A(2)).
(§1) Experiments were carried out by exposing solids of the test materials to various RH conditions. Preparation of specimens for XRPD analyses of post-stress solids was conducted with minimal exposure to ambient conditions. For selected samples, Karl Fischer analysis was done concurrently with XRPD testing. These samples therefore were kept in a glove bag equilibrated at the RH near to the exposure conditions, and the XRPD specimens were prepared inside the glove bag.
A mixture of Malate Form A/Malate Material H was subjected to 0%, 11%, 23%, 69%, and 93% RH, each for approximately 5 days. It should be noted that the stress RH was not maintained during the XRPD specimen preparation and analyses. Therefore, solids from all these stress conditions were briefly exposed to ambient RH estimated as ˜21-23% at the time of the analyses.
(§2) To investigate this further, stress experiments were conducted at 30% and 93% RH with minimal exposure to ambient RH so that XRPD and water content analyses could be considered representative of the stress conditions. […] In these experiments, a mixture of Malate Form A/Malate Material H was initially subjected to 93% RH for ˜8 days. It was then immediately analyzed by XRPD and Karl Fischer. The same sample was then re-exposed to 30% RH.

[4] = Clinical trials, salt dosed in patients; type: in vivo, human
[5] = Heat and elevated temperature/relative humidity stress (XRPD); type: physicochemical; conditions: heating at or above 40° C. (7 days at 40° C. and 80° C.; at or above 120° C. for ~1 hour)
Experimental: Heat and elevated temperature/RH stresses were designed to evaluate the physical stability of Compound 1 Malate Form A at elevated temperature. A mixture of Compound 1 Malate Form A/Malate Material H was utilized for testing. Experiments were conducted by heating solids of the test material at 40, 80, 120, and 140-145° C. Solids were also subjected to a combination of elevated temperature and RH, i.e. 40° C./75% RH and 30° C./60% RH (Table 3B).

[6] = Critical water activity slurries in organic solvent/water (XRPD); type: physicochemical; conditions: Acetone/H2O 98/2, 1 week, water activity 0.35
Experimental: An evaluation of the physical stability of Malate Form A under solvent-mediated conditions and assessment of the potential competition between solvate and hydrate formation were conducted by slurrying Malate Form A in various organic solvent/water systems (Table 3C).
An acetone/water system was selected for investigation of the stability at water activities between 0.4 and 0.9. Aqueous ACN, Dioxane, DMF, DMSO, and NMP were also investigated. A mixture of Malate Form A/Malate Material H was primarily used as the starting material. Samples of Malate Form A were combined and utilized as the starting material in a single experiment (acetone/water at low water activity).

[7] = Long term stability studies (related impurities by HPLC); type: physicochemical; conditions: 6 months storage at 40° C./75% RH, 12 months storage at 40° C./75% RH
[8] = Karl Fischer water content; type: physicochemical
Experimental: Coulometric Karl Fischer analysis for water determination was performed using a Mettler Toledo DL39 Karl Fischer titrator with a Stromboli oven attachment. Prior to analyses samples tested were exposed to specified ambient relative humidity for ˜2 hours. Two replicates of the sample were placed into the drying oven set at a temperature of approximately 140 or 145° C. The drying oven was purged into the titrator vessel with dry nitrogen. The samples were then titrated by means of a generator electrode, which produces iodine by electrochemical oxidation: 2I−→I2+2e−. A NIST-traceable water standard (Hydranal Water Standard 10.0) was analyzed to check the operation of the coulometer.
as §1, §2

[9] = Dynamic vapor sorption (DVS); type: physicochemical; conditions: 25° C.
Experimental: Moisture sorption/desorption data were collected using a Surface Measurement System (SMS) DVS Intrinsic Instrument according to the manufacturer's instructions. Samples were not dried prior to analysis. Sorption/desorption data were collected over a range from 5% to 95% relative humidity (RH) at 10% RH increments under a nitrogen gas purge. The equilibrium criterion used for analysis was less than 0.0100% weight change in 5 min with a maximum equilibration time of three hours. Data were not corrected for initial moisture content of the samples.
The sample was recovered after completion of the isotherm and re-analyzed by XRPD
Sorption isotherms of Compound 1 Malate Form A were obtained using a SMS DVS Intrinsic moisture sorption analyzer, controlled by DVS Intrinsic Control software. The sample temperature was maintained at 25° C. by the instrument controls. The humidity was controlled by mixing streams of dry and wet nitrogen, with a total flow rate of 200 mL/min. The relative humidity was measured by a calibrated Rotronic probe (dynamic range of 1.0-100% RH), located near the sample. The weight change, (mass relaxation) of the sample as a function of % RH was constantly monitored by a microbalance (accuracy ±0.005 mg).
Briefly, Malate Form A was placed in a tared mesh stainless steel basket under ambient conditions. The sample was loaded and unloaded at 40% RH and 25° C. (typical room conditions) and allowed to equilibrate to 5% RH. A moisture sorption isotherm was performed as outlined below (1 scan per complete cycle). The standard isotherm was performed at 25° C. at 10% RH intervals over a 5-95% RH range. Data analysis was carried out within Microsoft Excel using the DVS Analysis Suite.

[10] = Long term stability studies (related impurities by HPLC); type: physicochemical
Experimental: Long term stability studies for Compound 1 Malate Form A were conducted at 2-8° C. and 25° C./60% RH. For each test interval, samples are packaged into double polyethylene bags, individually zip tied and stored in 30 mL white screw cap HDPE bottles.

[11] = Pharmacokinetics in beagle dogs, oral capsule and IV solution; type: in vivo
Experimental: Centrifugation began within 1 hour of collection. Plasma was placed into 96-well tubes with barcode labels. Plasma was maintained on dry ice prior to storage at approximately −70° C.

COCCNCc1ccc(-c2cc3nccc(Oc4ccc(NC(=O)C5(C(=O)Nc6ccc(F)cc6)CC5)cc4F)c3s2)nc1 [Tartrate Form A, N-(3-fluoro-4-((2-(5-(((2-methoxyethyl)amino)methyl)pyridin-2-yl)thieno[3,2-b]pyridin-7-yl)oxy)phenyl)-N′-(4-fluorophenyl)cyclopropane-1,1-dicarboxamide (2R,3R)-2,3-dihydroxysuccinate (1:1)]
XRPD Results after storage [1]: Remained

COCCNCc1ccc(-c2cc3nccc(Oc4ccc(NC(=O)C5(C(=O)Nc6ccc(F)cc6)CC5)cc4F)c3s2)nc1 [Compound 1 Malate, N-(3-fluoro-4-((2-(5-(((2-methoxyethyl)amino)methyl)pyridin-2-yl)thieno[3,2-b]pyridin-7-yl)oxy)phenyl)-N′-(4-fluorophenyl)cyclopropane-1,1-dicarboxamide (S)-2-hydroxysuccinate (1:1)]
Bioequivalence to 120 mg Compound 1 Free base capsule formulation [2]: bioequivalence was achieved

COCCNCc1ccc(-c2cc3nccc(Oc4ccc(NC(=O)C5(C(=O)Nc6ccc(F)cc6)CC5)cc4F)c3s2)nc1 [Compound 1 Malate Form A]
XRPD Results after RH stress ([3]; 30% RH, 4 days (~33% ambient RH at sample preparation, glove bag)): Malate Form A, slight peak shifts (c) | XRPD Results after RH stress ([3]; 93% RH, 1 day): Malate Form A, | Relative humidity above which the form is physically stable ([3]; below it a reversible dehydration was seen): above 23 % RH | Dose reduction achieved when the salt was dosed in patients (vs free base) [4]: 20-30% | Effect of heating (XRPD) [5]: partial dehydration | XRPD Results after slurry [6]: Malate Form A + Malate Material B | Long term stability (in words) [7]: stable | Water content (Karl Fischer) ([8]; after the 30% RH stress): 3.7% | Water content, equivalent in mol ([8]; after the 30% RH stress): about 1.5 mol | Water content (Karl Fischer) ([8]; after the 93% RH stress): 5.3% | Water content, equivalent in mol ([8]; after the 93% RH stress): ~2.5 mol | Calculated H2O content (KF, average value from 2 runs) ([8]; ~12% RH at sample preparation): Calculated H2O content: 3.47% | Calculated H2O content (KF, average value from 2 runs) ([8]; ~17-18% RH at sample preparation, ~35 seconds for preparation): Calculated H2O content: 3.73% | Calculated H2O content (KF, average value from 2 runs) ([8]; ~35-36% RH at sample preparation, ~35 seconds for preparation): Calculated H2O content: 5.32% | DVS weight loss, desorption ([9]; 15-5% RH): ~1.7% | DVS weight loss, desorption ([9]; 95-15% RH): approximately 1.3 wt % | DVS weight gain, sorption ([9]; between 5-25% RH): about 2.1 wt % | DVS additional weight gain, sorption ([9]; between 25-95% RH): 1.1 wt % | DVS weight loss upon equilibration at 5% RH ([9]; equilibration at 5% relative humidity): 1.2 wt % | Related Impurities (HPLC): Total impurities ([10]; 2-8° C., 0 month): 0.86% | Related Impurities (HPLC): Total impurities ([10]; 2-8° C., 3 months): 0.87% | Related Impurities (HPLC): Total impurities ([10]; 2-8° C., 6 months): 0.79% | Related Impurities (HPLC): Total impurities ([10]; 2-8° C., 12 months): 0.78% | Related Impurities (HPLC): Total impurities ([10]; 2-8° C., 24 months): 0.80% | Long term stability (in words) ([10]; 24 months storage at 2-8° C. or 25° C./60% RH): stable | Related Impurities (HPLC): Total impurities ([10]; 25° C./60% RH, 0 month): 0.86% | Related Impurities (HPLC): Total impurities ([10]; 25° C./60% RH, 3 months): 0.76% | Related Impurities (HPLC): Total impurities ([10]; 25° C./60% RH, 6 months): 0.83% | Related Impurities (HPLC): Total impurities ([10]; 25° C./60% RH, 12 months): 0.80% | Related Impurities (HPLC): Total impurities ([10]; 25° C./60% RH, 24 months): 0.90% | Absolute Bioavailability (%) (DN AUC [Oral]/DN AUC [IV]) * 100 ([11]; beagle dogs, orally administered): 34.2% | Improvement in oral bioavailability compared to the amorphous of Compound 1 free base plus surfactant ([11]; dogs, in the absence of surfactant): 2 fold

COCCNCc1ccc(-c2cc3nccc(Oc4ccc(NC(=O)C5(C(=O)Nc6ccc(F)cc6)CC5)cc4F)c3s2)nc1 [Compound 1, N-(3-fluoro-4-((2-(5-(((2-methoxyethyl)amino)methyl)pyridin-2-yl)thieno[3,2-b]pyridin-7-yl)oxy)phenyl)-N′-(4-fluorophenyl)cyclopropane-1,1-dicarboxamide]
Long term stability (in words) ([10]; room temperature, drug substance and drug product): poor long term stability
